Data as given in patent publication US20240398853A1, “MULTIVALENT POLYCATION INHIBITION OF POLYANIONS IN BLOOD” (The Regents of the University of Michigan, priority 2021, published 2024).

Columns and labels:
mice = mice (Shenoi); cited from earlier work
human plasma clotting = assay: Plasma clot formation by turbidity analysis in a TF-triggered system (no polyP); type: biochemical
Method: Microplate turbidimetric clotting assays were performed with platelet-poor plasma (PPP) obtained from three donors. MPI solutions were prepared in 20 mM HEPES (pH 7.4, 150 mM NaCl) buffer. Clotting was initiated in 90 μL of 30% diluted PPP spiked with MPI (dilution 1:10) by adding 5 μL of recombinant tissue factor (TF; Innovin (1:10,000; […])) and 5 μL of CaCl2) (20 mM). Clotting was evaluated by monitoring changes in turbidity (A405 nm) every 30 seconds with the Spectramax microplate reader for 2 hours at 37° C. Clotting parameters including lag time were calculated and considered as the time point when an exponential increase in absorbance was first observed.

[1] = system: Unfractionated heparin (UFH); assay: Heparin reversal activity by aPTT in heparinized plasma; type: biochemical, human; details: UFH 4 U/mL, dose range 0-250 μg/mL
Method: (§1) Stock MPI, UHRA or protamine sulfate solutions were prepared in 20 mM HEPES buffer (pH 7.4 and 150 mM NaCl). Unfractionated heparin (Fresenius Kabi, Canada) or tinzaparin (LEO Pharma, Canada), 4 U/mL and 1 U/mL final concentrations, respectively, were incubated with sodium citrate anticoagulated pooled normal plasma (Affinity Biologicals, Canada) to prepare heparinized plasma, and were used to study the neutralization activity by various MPI and UHRA constructs. The neutralization activity of MPI, UHRA and protamine sulfate on the coagulation cascade was examined by mixing 20 μL of MPI or UHRA or protamine solution with 180 μL of heparin derivative incubated plasma ( 1/10 v/v). The final concentration of MPI, UHRA and protamine in plasma ranged from 0.025 mg/mL to 0.25 mg/mL. 200 μL of aPTT reagent (Dade®Actin®FS Activated PTT, Siemens/Dade-Behring) was then added to the neutralization reagent-plasma sample and 100 μL of this resulting mixture was transferred to cuvette-strips and incubated at 37° C. for 3 minutes. The clotting time was measured on a STart® 4 coagulometer (Diagnostica Stago, France) and began when 50 μL of 25 mM CaCl2) was added into each cuvette. Saline added to plasma with and without heparin-derivatives was used as a control for the experiments. The percentage of neutralization was calculated from the difference in the clotting times observed for MPI/UHRA/protamine versus control saline and heparinized plasma. All experiments were performed with pooled plasma of 20 donors in triplicates and the average values (mean±SD) are reported.

tinzaparin (LMWH) = assay: as above; type: biochemical, human; details: tinzaparin 1 U/mL
Method: as §1

[2] = free ligand, value marked with a reference superscript; cited from earlier work
[3] = 31P NMR titration of polyP with MPI or CBG; type: binding; details: HEPES buffer, 150 mM NaCl, 298 K
Method: NMR spectra for MPI and polyP binding interaction studies were acquired on a Bruker 500 MHz instrument (Bruker Biospin, Milton, ON), operating at a ^1H frequency of 499.4 MHz. ^31P NMR spectra were collected at 298 K. The NMR sample was prepared to yield 0.5 mM of polyphosphate in HEPES buffer with 150 mM NaCl and 10% D2O (by volume) for a total sample volume of 600 μL. All polyphosphate concentrations are provided in terms of the concentration of phosphate monomer. For the binding study, polyphosphate was first prepared with a known concentration of internal standard of trimethylphosphate. MPI was titrated in, and the total volume was increased by 1.5 μL of the 600 μL total per addition.
While ITC experiments indicate the behavior of the amine functionalities on the CBGs during the MPI-polyP binding event, the effect of the MPI on the polyP phosphate backbone have previously been unknown. To determine the interaction between the MPI and polyP backbone, and how the interaction effects the electronic environment of the phosphorus nuclei, ^31P NMR titration experiments were performed. […] While it is not possible to quantify the number of bound phosphate units with MPI or CBG, it is possible to visualize the change in electronic environment of the phosphorus nuclei and extrapolate the binding behavior between MPI and polyP.

[4] = Isothermal titration calorimetry, binding to polyP; details: for Kd: pH 7.4, 25° C.
Method: The interaction of MPI and polyP was carried out at 25° C. using a MicroCal iTC200 calorimeter (MicroCal, Northampton, USA). Samples were prepared by making stock solutions of at least 100× the desired concentration at high volume and filtered using 0.2 µm filters (Millex, Merck Millipore Ltd). The pH of each solution was then measured to ensure that they were between 7.35 and 7.40. Prior to titration, stock solutions were diluted with the same filtered buffer and degassed. Titrations consisted of 25 consecutive injections of 1.5 μL volume and 5 sec duration each, with a 3 min interval between injections with only the first injection between 0.2 μL volume, not used as part of the fit. Heat of dilution was measured by injecting MPI solution into buffer alone and was subtracted from the experimental curves prior to data analysis. The resulting data were fit into a single set of identical sites model using the MicroCal ORIGIN software supplied with the instrument.

Molecule	lethal dose (mice) [mg/kg]	plasma clot time (lag time) compared to buffer control (human plasma clotting; MPI and PS 200 μg/mL, UHRA 75 μg/mL)	increase in clot time compared to buffer control (human plasma clotting; pooled plasma) [fold]	UFH neutralization in heparinized plasma [1]	anticoagulant (overdose) behavior at higher doses [1]	LMWH neutralization (tinzaparin (LMWH))	log K, H2L + H ⇌ H3L [2]	log K, HL + H ⇌ H2L [2]	log K, L + H ⇌ HL [2]	binding behaviour towards P45 in 31P NMR titration [3]	binding affinity to LC polyP (range in words) ([4]; ITC, FIG. 7)	Kd ([4]; P45, HEPES, 10 mM NaCl) [mM]	Kd ([4]; P700, HEPES buffer) [mM]	log K, H3L + H ⇌ H4L [2]
protamine sulfate	30	performed significantly worse than MPI candidates	~3	exhibits heparin neutralization at lower doses	clear anticoagulant behavior at higher doses	almost no neutralization activity on LMWH								
CN(C)CCN(C)CCN(C)C [CBG I, N,NN′,N″,N″-pentamethyldiethylenetriamine]							2.09 ± 0.02	8.41 ± 0.02	9.22 ± 0.02	weak interaction	millimolar range	7	9	
CN(C)CCN(CCN(C)C)CCN(C)C [Me6-TREN]							7.44	8.68	9.50					<1.0
